Some test systems named below: COLO 205 colon; U251 CNS; HT29 colon; SK-MEL-5 melanoma; MALME-3M melanoma; OVCAR-5 ovarian; MCF7 breast; SK-MEL-28 melanoma; MDA-MB-231 breast; SNB-19 CNS.
Test in all cases: NCI anticancer screen, dose series, 48 h

This is an account of results in PubChem BioAssay (NCI).

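The compound was tested at five concentrations on cells cultured in 96-well plates, with a 48-hour exposure period. GI50: concentration for 50% inhibition of growth. TGI: concentration producing complete growth inhibition.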 Bounds are passed on as bounds.

As for `CN(C)CCCNC(=O)c1cc2c3ccccc3[nH]c2c2ncccc12`, the GI50 in the assay on COLO 205 colon was 4.43 µM; with U251 CNS, 16.7 µM; in the assay with HT29 colon it was 10.3 µM; in the assay with SK-MEL-5 melanoma, 13.5 µM; in the assay on MALME-3M melanoma, 13 µM; in the assay on OVCAR-5 ovarian, 20.3 µM. The GI50 in the assay with MCF7 breast is 14.7 µM; with SK-MEL-28 melanoma it was 14.3 µM; with MDA-MB-231 breast, 14.4 µM; in the assay on SNB-19 CNS it was 17.4 µM. Further, the TGI in the assay on COLO 205 colon is 16.6 µM; in the assay with U251 CNS, 70 µM; with HT29 colon it was 50.4 µM; with SK-MEL-5 melanoma it was 26.6 µM; with MALME-3M melanoma, 27 µM; in the assay with OVCAR-5 ovarian, more than 100 µM. Besides, the TGI in the assay on MCF7 breast came to 66.8 µM; in the assay with SK-MEL-28 melanoma it was 31.1 µM; in the assay on MDA-MB-231 breast, 74.9 µM; in the assay on SNB-19 CNS it was 85.3 µM.

Regarding `Cn1cc(-c2csc(-c3cn(CCN4CCOCC4)c4ccc(F)cc34)n2)c2cccnc21`, the GI50 in the assay on COLO 205 colon is 2.08 µM; in the assay with U251 CNS, 3.35 µM; in the assay on HT29 colon, 2.85 µM; in the assay on SK-MEL-5 melanoma it was 1.85 µM; in the assay on MALME-3M melanoma it was 2.88 µM; in the assay with OVCAR-5 ovarian, 4.59 µM. Besides, the GI50 is 1.94 µM with MCF7 breast, 3.01 µM in the assay with SK-MEL-28 melanoma, 2.51 µM with MDA-MB-231 breast and 3.93 µM with SNB-19 CNS. In addition, the TGI in the assay with COLO 205 colon was 5.23 µM; with U251 CNS, 22.2 µM; with HT29 colon, 17.7 µM; in the assay with SK-MEL-5 melanoma, 3.56 µM; with MALME-3M melanoma, 12.3 µM; in the assay on OVCAR-5 ovarian, more than 100 µM. The TGI is 6.55 µM in the assay with MCF7 breast, 12.3 µM in the assay on SK-MEL-28 melanoma, 8.48 µM in the assay with MDA-MB-231 breast and more than 100 µM in the assay with SNB-19 CNS.

For the molecule `CCN(CC)c1ccc(/C=C/C(=O)c2cccc(NS(C)(=O)=O)c2)cc1`, the GI50 with COLO 205 colon was 5.28 µM; in the assay on U251 CNS, 10.9 µM; with HT29 colon it was 3.15 µM; in the assay on SK-MEL-5 melanoma, 4.21 µM; in the assay with MALME-3M melanoma, 5.79 µM; with OVCAR-5 ovarian, 35 µM. For the same molecule, the GI50 with MCF7 breast was 3.72 µM; in the assay with SK-MEL-28 melanoma it was 43.5 µM; in the assay with MDA-MB-231 breast, 9.7 µM; in the assay on SNB-19 CNS, 86 µM. The TGI in the assay with COLO 205 colon, with U251 CNS, in the assay on HT29 colon, in the assay with SK-MEL-5 melanoma, in the assay on MALME-3M melanoma and in the assay on OVCAR-5 ovarian was more than 100 µM in each case. The TGI with MCF7 breast, in the assay with SK-MEL-28 melanoma, in the assay on MDA-MB-231 breast and in the assay on SNB-19 CNS was more than 100 µM throughout.

Consider `CC(=O)NNC(=O)c1nn(-c2ccc(Cl)cc2)cc1OC(C)=O`, for which the GI50 is 39.1 µM in the assay with COLO 205 colon; 11.8 µM in the assay with U251 CNS; 42.4 µM with HT29 colon; 10.4 µM with SK-MEL-5 melanoma; 25.7 µM with MALME-3M melanoma; more than 83.5 µM with OVCAR-5 ovarian. Moreover, the GI50 in the assay on MCF7 breast is more than 37 µM; with SK-MEL-28 melanoma, more than 56.7 µM; with MDA-MB-231 breast, 23.7 µM; in the assay with SNB-19 CNS, more than 70.2 µM. Moreover, the TGI was more than 100 µM in the assay on COLO 205 colon; more than 100 µM in the assay on U251 CNS; more than 93.4 µM in the assay with HT29 colon; more than 69.1 µM in the assay on SK-MEL-5 melanoma; more than 91.4 µM in the assay on MALME-3M melanoma; more than 100 µM in the assay with OVCAR-5 ovarian. In addition, the TGI in the assay on MCF7 breast is more than 78.4 µM; in the assay with SK-MEL-28 melanoma, more than 100 µM; in the assay on MDA-MB-231 breast, more than 87.4 µM; with SNB-19 CNS, more than 100 µM.

In the case of `COc1ccc(N2CCN(CC(=O)N3CCN(c4nnc(-c5ccccc5)c(-c5ccccc5)n4)CC3)CC2)cc1`, the GI50 with COLO 205 colon is 3.25 µM; with U251 CNS it was 6.43 µM; in the assay with HT29 colon it was 3.19 µM; in the assay with SK-MEL-5 melanoma, 2.32 µM; in the assay on MALME-3M melanoma it was 6.82 µM; in the assay on OVCAR-5 ovarian, more than 100 µM. Besides, the GI50 in the assay with MCF7 breast was 4.44 µM; with SK-MEL-28 melanoma it was 11.9 µM; in the assay with MDA-MB-231 breast, 65.3 µM; in the assay with SNB-19 CNS it was more than 33.6 µM. The TGI in the assay with COLO 205 colon is 13.7 µM; with U251 CNS it was more than 100 µM; with HT29 colon, 11.3 µM; in the assay with SK-MEL-5 melanoma it was 6.63 µM; in the assay on MALME-3M melanoma it was more than 100 µM; with OVCAR-5 ovarian, more than 100 µM. Also, the TGI in the assay on MCF7 breast was 34.2 µM; in the assay on SK-MEL-28 melanoma it was more than 100 µM; in the assay with MDA-MB-231 breast it was more than 100 µM; with SNB-19 CNS, more than 100 µM.

For `O=C(Cc1ccc(/C=C/C(=O)c2ncc[nH]2)cc1)Nc1ccc(Br)cc1`, the GI50 in the assay on COLO 205 colon was 2.57 µM; in the assay on U251 CNS it was 0.704 µM; with HT29 colon, 0.726 µM; in the assay on SK-MEL-5 melanoma, 5.77 µM; in the assay with MALME-3M melanoma, 3.12 µM; in the assay with OVCAR-5 ovarian, 2.24 µM. Besides, the GI50 with MCF7 breast was 0.569 µM; with SK-MEL-28 melanoma, 3.07 µM; in the assay with MDA-MB-231 breast, 3.97 µM; with SNB-19 CNS, 2.54 µM. Besides, the TGI with COLO 205 colon is 5.74 µM; with U251 CNS it was 2.56 µM; in the assay on HT29 colon, 3.71 µM; in the assay on SK-MEL-5 melanoma, more than 16.7 µM; with MALME-3M melanoma it was 7.69 µM; in the assay on OVCAR-5 ovarian, 5.83 µM. Further, the TGI was more than 16.7 µM with MCF7 breast, 6.65 µM in the assay on SK-MEL-28 melanoma, 13.4 µM in the assay on MDA-MB-231 breast and 7.99 µM in the assay with SNB-19 CNS.

Turning to `C[C@@H]1CN(Cc2ccc(/C=C/c3n[nH]c4ccc5nc(-c6cn[nH]c6C(F)(F)F)c6c(c5c34)CCCC6)cc2)C[C@H](C)O1`, the GI50 in the assay with COLO 205 colon is 3.21 µM; with U251 CNS, 5.45 µM; in the assay on HT29 colon it was 2.77 µM; with SK-MEL-5 melanoma, 12.2 µM; in the assay with MALME-3M melanoma, 4.96 µM; with OVCAR-5 ovarian it was 4.06 µM. In addition, the GI50 in the assay with MCF7 breast is 1.53 µM; in the assay with SK-MEL-28 melanoma, 7.11 µM; in the assay on MDA-MB-231 breast, 3.24 µM; in the assay on SNB-19 CNS it was 10.2 µM. Moreover, the TGI in the assay with COLO 205 colon worked out at 12 µM; with U251 CNS, 19.5 µM; in the assay with HT29 colon, 7.82 µM; in the assay on SK-MEL-5 melanoma it was 24.7 µM; in the assay with MALME-3M melanoma it was 20.9 µM; with OVCAR-5 ovarian it was 16.2 µM. The TGI came to 14.9 µM with MCF7 breast, 21.2 µM with SK-MEL-28 melanoma, 15.5 µM in the assay on MDA-MB-231 breast and 22.1 µM in the assay on SNB-19 CNS.
